Laboratory results published in publication PMC9100673, “Acridine Based N-Acylhydrazone Derivatives as Potential Anticancer Agents: Synthesis, Characterization and ctDNA/HSA Spectroscopic Binding Properties” (Molecules, 2022).

Legend:
hTopo IIα = hTopo IIα (Homo sapiens, UniProt P11388); assay: Topo IIα kDNA decatenation assay; assay type: biochemical; details: 25, 50 and 100 μM
Method: The Topo IIα enzyme catalysed the decatenation of catenated kDNA to closed circular decatenated kDNA. In one specific case, linear (L) and nicked-opened (NC) forms of DNA could by observed. […] The m-Amsacrine (AMSA) (lane 2) was the observed band for catenated DNA.
(§1) Figure 12 The result of Topo I/IIα activity tests in the presence of derivatives 3a–3d. (A) Electrophoretogram for inhibition relaxation activity of hTopo I (2.5 U) by derivatives 3a–3d in concentrations of 25, 50 and 100 μM (lane 5–16), substrate-free SC pBR322 (0.5 μg) (lane 4), camptothecin (CPT, lane 2) and plasmid+hTopo I control (lane 3). (NOC—nicked-opened DNA form; R—relaxed DNA form; SC—supercoiled DNA form). (B) Electrophoretogram for inhibition decatenation activity of hTopo IIα (0.5 U) by derivatives 3a–3d in concentrations of 25, 50 and 100 μM (lane 5–16), substrate-free catenated kinetoplast DNA (cat kDNA) (0.5 μg) (lane 4), m-Amsacrine (AMSA, lane 2) and plasmid +hTopo IIα control (lane 3). (decat DNA—decatenated DNA; NC—nicked circular DNA form; L—linear DNA form).

hTopo I = target: T1, hTopo I (Homo sapiens, UniProt P11387); assay: Topo I DNA relaxation assay; assay type: biochemical; details: 25, 50 and 100 μM; pBR322
T1 sequence (P11387 1-765): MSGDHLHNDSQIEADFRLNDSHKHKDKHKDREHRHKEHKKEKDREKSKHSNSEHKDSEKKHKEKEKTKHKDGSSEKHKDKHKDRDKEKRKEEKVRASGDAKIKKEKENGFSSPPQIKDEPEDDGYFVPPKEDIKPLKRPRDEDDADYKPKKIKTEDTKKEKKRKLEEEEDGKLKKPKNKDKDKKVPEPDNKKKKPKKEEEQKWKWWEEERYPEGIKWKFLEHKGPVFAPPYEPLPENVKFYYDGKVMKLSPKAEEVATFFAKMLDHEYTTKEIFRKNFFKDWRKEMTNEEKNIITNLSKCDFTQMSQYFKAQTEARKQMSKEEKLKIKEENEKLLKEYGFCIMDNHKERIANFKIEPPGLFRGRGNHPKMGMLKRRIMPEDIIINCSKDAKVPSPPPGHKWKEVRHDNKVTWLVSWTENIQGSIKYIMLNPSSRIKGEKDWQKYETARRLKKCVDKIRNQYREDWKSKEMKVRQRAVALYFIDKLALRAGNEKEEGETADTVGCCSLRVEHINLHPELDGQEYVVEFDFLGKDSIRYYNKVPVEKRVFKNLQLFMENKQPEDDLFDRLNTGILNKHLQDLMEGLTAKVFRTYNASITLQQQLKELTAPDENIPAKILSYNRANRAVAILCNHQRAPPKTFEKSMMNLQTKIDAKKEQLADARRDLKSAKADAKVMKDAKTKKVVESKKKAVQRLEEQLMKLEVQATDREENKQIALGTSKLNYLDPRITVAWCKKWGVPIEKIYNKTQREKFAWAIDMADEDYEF
Excerpt: Topo I enzymes convert the supercoiled (SC) form DNA to relaxed (R) form and nicked-open-circular (NOC) DNA. The NOC form is circular dsDNA with one nicked strength; Topo I nicked only one strength. SC form DNA migrate the fastest in gel, NOC migrates the slowest, and the migration speed of R DNA is in the middle of these two forms. In an electrophoretogram with active Topo I enzymes, SC DNA is not observed, but R and NOC DNA forms can be seen. In the case of Topo I inhibition, bends for R and NOC DNA forms are not observed. The results electrophoretogram effect of derivatives 3a–3d on activity topoisomerase I show Figure 12A.
as §1

A549 cells = assay: MTT assay, metabolic activity of A549 cells; assay type: cell-based, human; details: for SI, selectivity index: 48 h, IC50 CCD-18Co / IC50 A549; for IC50: Homo sapiens
Method: The effect of acridine-benzohydrazides (3a–3d) on the metabolic activity of the lung adenocarcinoma cell line (A549) and the normal colon fibroblast cell line (CCD-18Co) was evaluated using a 3-(4,5-dimethylthiazol-2-yl)-2,5-diphenyltertrazolium bromide (MTT) cell assay. This assay is based on the metabolization of yellow MTT to purple formazan crystal by mitochondrial dehydrogenases, and therefore only metabolic active cells are capable of that reaction. The CCD-18Co cell line was used as a control to check for derivatives selectivity. The doxorubicin belongs to a group of anthracyclines, which represent the chemotherapeutic regiments for the treatment of NSCLC (non-small cell lung carcinoma) even today, and acts as antineoplastic mainly by interaction with the DNA topoisomerase II and by creating DNA single- and double-strand breaks. Previous studies described detailed cytotoxic effects of doxorubicin in the human lung adenocarcinoma A549 cell line. Doxorubicin resembles our compounds in its biological action; therefore, it was employed as a positive control.
Human lung carcinoma cell line A549 and CCD-18Co colon fibroblasts were purchased from the American Type Culture Collection (ATCC, Rockville, MD, USA). The A549 cells were cultured in a complete RPMI-1640 medium (Sigma-Aldrich, St. Louis, MO, USA) and CCD-18Co cells were cultured in a minimum essential medium (MEM) (PAN-Biotech GmbH, Aidenbach, Germany) at 37 °C, 95% humidity and 5% CO2. The media were supplemented with 10% fetal bovine serum (FBS, Biosera, Nuaille, France) and antibiotics (1% Antibiotic-Antimycotic 100 × and 50 × 10^−3 g L^−1 gentamicin, Biosera). Prior to the selected treatments, cells were seeded on 6- and/or 96-well plates (TPP, Trasadingen, Switzerland) and left to settle for 24 h. The acridine compounds solutions (at concentrations ranging from 5–75 µM) were then added to cells for 24 or 48 h, and analysis was subsequently performed.
MTT assays were performed in order to evaluate changes in the metabolic activity of cells that had occurred as a consequence of treatment with the acridine compounds. A549 cells (15 × 10^3 cells/cm^2) and CCD-18Co (15.625 × 10^3 cells/cm^2) were seeded in 96-well microplates. The A549 cells were treated for 24 and 48 h, and the CCD-18Co cells were treated for 48 h with different concentrations (5, 25, 50 and 75 µM) of the derivatives. After the treatment, the MTT (3-(4,5-dimethylthiazol-2-yl)-2,5-diphenyltertrazolium bromide) solution in PBS (5 mg mL^−1) was added to each well. The reaction was stopped after 4 h incubation, and the formazan was dissolved by the addition of SDS at a final concentration of 3.3%. The absorbance of formazan (λ = 584 nm) was measured using a BMG FLUOstar Optima spectrometer (BMG Labtech GmbH, Offenburg, Germany). The results were evaluated as percentages of the absorbance of the untreated control. Results are presented as the average percentage of cells from three independent experiments. IC50 values for the derivatives were extrapolated from a sigmoidal fit (dose-response curve) to the metabolic activity data using OriginPro 8.5.0 SR1 (OriginLab Corp., Northampton, MA, USA).

Sequence of hTopo IIα (P11388 whole entry): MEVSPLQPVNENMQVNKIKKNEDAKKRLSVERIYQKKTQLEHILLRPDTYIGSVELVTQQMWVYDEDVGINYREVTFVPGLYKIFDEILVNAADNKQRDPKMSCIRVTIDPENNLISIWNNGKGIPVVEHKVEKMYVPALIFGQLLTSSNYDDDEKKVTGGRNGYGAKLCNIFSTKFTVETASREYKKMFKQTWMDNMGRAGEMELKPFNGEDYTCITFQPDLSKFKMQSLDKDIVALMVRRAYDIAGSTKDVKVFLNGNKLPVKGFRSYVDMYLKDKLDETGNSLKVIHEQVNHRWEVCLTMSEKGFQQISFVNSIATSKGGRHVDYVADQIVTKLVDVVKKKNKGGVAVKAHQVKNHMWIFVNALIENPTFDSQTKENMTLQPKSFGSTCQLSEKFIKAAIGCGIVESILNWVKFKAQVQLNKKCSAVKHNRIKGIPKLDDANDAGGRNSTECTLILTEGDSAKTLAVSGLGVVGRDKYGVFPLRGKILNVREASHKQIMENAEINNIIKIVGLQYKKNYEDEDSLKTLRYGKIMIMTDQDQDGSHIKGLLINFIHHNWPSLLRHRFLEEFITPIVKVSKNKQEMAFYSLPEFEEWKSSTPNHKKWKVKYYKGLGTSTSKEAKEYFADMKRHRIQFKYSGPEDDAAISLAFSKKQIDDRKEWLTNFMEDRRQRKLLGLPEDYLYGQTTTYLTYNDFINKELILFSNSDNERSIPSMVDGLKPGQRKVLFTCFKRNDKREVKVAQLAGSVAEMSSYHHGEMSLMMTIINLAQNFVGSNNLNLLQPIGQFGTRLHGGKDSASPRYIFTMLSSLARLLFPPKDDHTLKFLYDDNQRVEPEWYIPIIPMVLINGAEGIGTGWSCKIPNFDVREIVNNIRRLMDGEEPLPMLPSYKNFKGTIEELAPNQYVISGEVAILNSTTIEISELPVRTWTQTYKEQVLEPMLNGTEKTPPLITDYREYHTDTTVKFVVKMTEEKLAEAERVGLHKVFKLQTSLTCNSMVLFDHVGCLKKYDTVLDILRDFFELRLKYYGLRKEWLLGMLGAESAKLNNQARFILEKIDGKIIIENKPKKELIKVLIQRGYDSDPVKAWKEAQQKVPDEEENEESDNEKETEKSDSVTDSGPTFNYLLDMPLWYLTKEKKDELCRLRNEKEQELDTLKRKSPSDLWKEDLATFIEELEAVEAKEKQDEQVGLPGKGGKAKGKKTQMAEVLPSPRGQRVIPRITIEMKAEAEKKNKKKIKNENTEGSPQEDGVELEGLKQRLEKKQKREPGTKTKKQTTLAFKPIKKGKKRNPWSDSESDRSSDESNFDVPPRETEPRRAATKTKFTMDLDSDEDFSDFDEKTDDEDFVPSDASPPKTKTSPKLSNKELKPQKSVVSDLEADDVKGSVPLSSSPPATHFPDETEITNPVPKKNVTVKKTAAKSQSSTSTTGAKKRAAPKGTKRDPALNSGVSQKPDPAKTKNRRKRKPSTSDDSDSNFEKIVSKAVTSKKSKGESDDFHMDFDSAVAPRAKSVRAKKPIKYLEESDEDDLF

| Structure (SMILES) | inhibition of decatenation activity of Topo IIα (hTopo IIα) | inhibition of relaxation activity of Topo I (hTopo I) | SI, selectivity index (A549 cells) | IC50 (A549 cells; A549, 24 h) [µM] | IC50 (A549 cells; A549, 48 h) [µM] |
| --- | --- | --- | --- | --- | --- |
| O=C(N/N=C/c1cccc2cc3ccccc3nc12)c1ccc(Br)cc1 [3d, N′-[(E)-Acridin-4-ylmethylidene]-4-bromobenzohydrazide] | partial inhibition | might inhibit the relaxation activity of Topo I | 0.31 | > 75 | 55 |
| O=C(N/N=C/c1cccc2cc3ccccc3nc12)c1ccccc1 [3a, N′-[(E)-(Acridin-4-yl)methylidene]benzohydrazide] | No obvious inhibitory effects | did not have the potential to inhibit |  | > 75 | 43 |
| O=C(N/N=C/c1cccc2cc3ccccc3nc12)c1ccc(Cl)cc1 [3c, N′-[(E)-Acridin-4-ylmethylidene]-4-chlorobenzohydrazide] | partial inhibition | might inhibit the relaxation activity of Topo I | 0.36 | 73 | 45 |
| O=C(N/N=C/c1cccc2cc3ccccc3nc12)c1ccc(F)cc1 [3b, N′-[(E)-Acridin-4-ylmethylidene]-4-fluorobenzohydrazide] | No obvious inhibitory effects | did not have the potential to inhibit | 0.22 | > 75 | 37 |
